Values of other authors as cited in patent US7129355B2, “Process for preparing kifunensine intermediate and kifunensine therefrom” (Industrial Research Limited, priority 2002, dated 2006).

System: plant mannosidase II
Settings: Elbein et al., J. Biol. Chem. 265, 15599, 1990

## O=C1N[C@@H]2[C@@H](O)[C@@H](O)[C@H](O)[C@@H](CO)N2C1=O [Kifunensine]
  activity toward plant mannosidase II: inactive
